One data set relates to MCF7 cells. Put plainly: Inhibition of the proliferation of MCF7 cells (Cell Titer-Glo). The format is cell-based. Particulars: Homo sapiens, MCF-7 cells, 72 hours, read-out: IC50 value of inhibition effect on the proliferation of MCF7 cells. The procedure:
The object of this experiment was to determine the inhibition effect of the compounds on the proliferation activity of MCF7 cells, and the in vitro activity of the compounds was evaluated according to the IC50 values.
MCF-7 cells (Cell Bank of Chinese Academy of Sciences typical culture preservation Committee, TChu 74) were inoculated into the MEM medium (Hyclone, SH30024.01B) containing 10% FBS (Gibco, 10099-141), 1% sodium pyruvate (Sigma, S8636), and 1% nonessential amino acids (Sigma, M7145) in a 96-well plate with a density of 40,000 cells/well, and the cells were incubated under the conditions of 37° C., and 5% CO2. The compound was prepared as a 20 mM stock solution that was later diluted to 1000× final concentration with 100% DMSO, and then diluted with 20-fold medium containing 2% FBS. After incubation for 24 hours, the medium was removed and 90 μl of the medium containing 2% FBS and 10 μl of the drug were added to each well, 10 […] of DMSO was added to the control group, and the blank group contained only 100 μl medium containing 2% FBS. The plate was gently shaken and incubated in a incubator at 37° C., 5% CO2. After 72 hours later, 50 μl of mixed Cell Titer-Glo (Promega, G7571) was added to each well. The plate was shaken until the ingredients were mixed uniformly, and placed at room temperature for 10 minutes, then the chemiluminescence signal value was determined. The inhibition effect of the compound AZD9496 at 100 nM on the proliferation of MCF-7 cells was set to 100%, the maximum inhibition rate of other compounds=(chemiluminescence signal valuenegative control−chemiluminescence signal valuecompound 100 nm)/(chemiluminescence signal valuenegative control−chemiluminescence signal valueAZD9496 100 nm)×100%, and the negative control was a well with 0.5% DMSO.
The values of the chemiluminescence signals vs the logarithmic concentrations of the compounds were plotted using Graghpad Prism to obtain the IC50 values.
Background: Cellular ATP, detected with luciferase, serves as a proxy for viable cell number.

The target in a further data set is T1, ERα (Homo sapiens, UniProt P03372).
T1 construct: host or cells: MCF-7
T1 sequence (P03372 1-595): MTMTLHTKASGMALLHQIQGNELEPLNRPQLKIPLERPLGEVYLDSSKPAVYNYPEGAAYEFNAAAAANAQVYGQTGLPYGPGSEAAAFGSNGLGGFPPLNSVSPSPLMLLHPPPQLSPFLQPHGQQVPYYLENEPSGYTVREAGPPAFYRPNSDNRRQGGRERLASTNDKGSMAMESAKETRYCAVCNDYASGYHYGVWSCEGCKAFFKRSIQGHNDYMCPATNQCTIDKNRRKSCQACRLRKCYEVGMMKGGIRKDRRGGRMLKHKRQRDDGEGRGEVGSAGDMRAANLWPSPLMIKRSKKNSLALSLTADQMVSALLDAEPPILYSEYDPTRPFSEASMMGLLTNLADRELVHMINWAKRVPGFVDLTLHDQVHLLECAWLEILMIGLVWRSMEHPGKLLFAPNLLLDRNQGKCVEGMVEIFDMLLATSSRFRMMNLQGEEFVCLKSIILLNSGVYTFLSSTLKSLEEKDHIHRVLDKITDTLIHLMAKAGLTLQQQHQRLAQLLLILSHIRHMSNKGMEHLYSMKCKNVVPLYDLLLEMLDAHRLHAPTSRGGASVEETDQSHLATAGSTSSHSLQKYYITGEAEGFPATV
Put plainly: Degradation effect on ERα in MCF-7 cells (ERα Duoset ELISA). The format is cell-based. Particulars: MCF7; compound at 3 μM, relative to positive control AZD-9496 at 3 μM set to 100%. The procedure: In order to determine the degradation effect on ER induced by the compound of present invention, the following method was used to determine the degradation effect of the compounds of the present invention on ER.
MCF-7 cell line (TChu 74, Cell Bank of Chinese Academy of Sciences typical culture preservation Committee)
ERα Duoset Kit (#DYC5715E, R&D System)
MCF-7 cells well incubated in DMEM/F-12 medium containing 10% FBS.
On the first day of the experiment, MCF-7 cells were resuspended in DMEM/F-12 medium containing 10% FBS treated by activated carbon, then inoculated into a 48-well plate with a density of 50,000 cells/well and incubated for 22-24 hours.
On the second day of the experiment, the test compound was diluted with medium and added to a 48-well plate. The ERα-capture antibody was diluted to 1 μg/ml with PBS, and added with 100 μl/well to a 96-well plate at 100 μl/well. The plate was sealed and coated overnight at room temperature.
On the third day of the experiment, the coated 96-well plate was washed twice with PBS, added with a sealing solution (1% BSA in PBS) at 110 μl/well and sealed for 1 hour at room temperature. The 48-well plate was washed once and the residual liquid was removed. Then, 60 μl of lysis buffer (6 M urea, 1 mM EDTA, 0.5% Triton X-100, 1 mM PMSF, Protease Inhibitor cocktail) was added to each well. After lysis on ice for 15 minutes, the diluent (1 mM EDTA, 0.5% TritonX-100 dissolved in PBS) was added. The cell-diluted lysate was transferred to a 96-well plate at 100 μl/well, then the plate was incubated at room temperature for 2 hours. The diluted primary antibody was added after the plate was washed 4 times with a washing liquid (PBST). After incubation for 1 hour, the 96-well plate was washed 4 times, and the second antibody was added, then the plate was incubated for 30 minutes. After the plate was washed with a washing liquid, TMB chromogenic solution was added and incubated for 15 minutes. The reaction was stopped by the addition of 1 M H2SO4, then the light absorption at a wavelength of 450 nm was read. The degradation effect of the compound AZD9496 at 3 μM was set to 100%, the Emax of other compounds=(ODnegative control−ODcompound 3 μM)/(ODnegative control−ODAZD9496 3 μM)×100%, and the negative control was a well with DMSO.
(ELISA stands for enzyme-linked immunosorbent assay.)

The next data set addresses T2, ER (estrogen receptor) (Homo sapiens, UniProt P03372).
T2 construct: MCF-7/ERE-luciferase monoclonal cells were selected by transfection of MCF-7; host or cells: MCF-7/ERE-luciferase (only the ERE-luciferase reporter was transfected)
T2 sequence (P03372 1-595): T1 sequence (P03372 1-595)
Nature of the data set: Inhibition of the binding of estrogen (E) to estrogen receptor (ER), MCF-7/ERE-luciferase reporter cells. The format is cell-based. The settings on record: MCF-7/ERE-luciferase cells, 0.1 nM estradiol, 24 hours, chemiluminescence; read-out: IC50 value of inhibition effect on the binding of E to ER. How it is done:
The compounds of the present invention have an inhibition effect on the binding of E (estrogen) to ER (estrogen receptor), thereby blocking the binding of a complex of E and ER complex to ERE (estrogen responsive element), and subsequently blocking the expression of downstream luciferase protein.
The inhibition effect of the compounds on the binding of E to ER in vitro was tested by the following method.
The object of this experiment was to determine the inhibition effect of the compounds on the binding of E to ER, and the in vitro activity of the compounds was evaluated according to the IC50 values.
ERE was cloned into the upstream of the luciferase gene, and MCF-7/ERE-luciferase monoclonal cells were selected by transfection of MCF-7 (Cell Bank of Chinese Academy of Sciences typical culture preservation Committee, TCHu74). MCF-7/ERE-luciferase cells were inoculated into the MEM medium (hyclone, SH30024.01B) containing 10% charcoal stripped FBS (Moregate, FBSF), 1% sodium pyruvate (Sigma, S8636), 1% nonessential amino acids (Sigma, M7145) and 500 μg/ml G418 in a 96-well plates with a density of 30,000 cells/well, and the cells were incubated under the conditions of 37° C., and 5% CO2. The drug was prepared as a 20 mM stock solution that was later diluted with 100% DMSO in 10 fold concentration gradient, and then diluted 20-fold with the medium DMEM. After incubation for 24 hours, the medium was removed, then 0.1 nM estradiol (Sigma, E2758) and 10 μl of the drug diluted with the medium were added to each well, and the control group was added with DMSO. The plate was gently shaken and incubated in a incubator at 37° C., 5% CO2. After 24 hours, the cell culture medium was discarded, Then, 50 μl of the prepared luciferase substrate (Promega, E6110) was added to each well, and the plate was placed in the dark at room temperature for 10-15 minutes, then the chemiluminescence signal value was determined.
The inhibition effect of the compounds of the present invention on the binding of E to ER was tested by the experiment described above. The values of the chemiluminescence signal vs the logarithmic concentrations of the compounds were plotted using Graphpad Prism, and the measured IC50 values are shown in Table 1.
(In general: In a reporter assay the amount or activity of a reporter protein is the signal.)

Data set [1] in a line: Pharmacokinetics assay in BALB/C nude mice after intragastrical administration. The format is in vivo. Particulars: female, mouse, po, 3 mg/kg, plasma; for Vd/F: read-out: Apparent Distribution Volume Vz/F; for AUC: read-out: Area Under Curve AUC; for CL/F: read-out: Clearance CL/F; for half-life: read-out: Half-Life t1/2 (converted); for MRT: read-out: Mean Residence Time MRT; for Cmax: read-out: Plasma Conc. Cmax. The procedure: BALB/C nude mice were used as test animals. The drug concentration in plasma at different time points was determined by LC/MS/MS after intragastrical administration of the compounds of Examples 1, 7, 8, 10, 11, 14, 16, 39 and 42 to BALB/C nude mice. The pharmacokinetic behavior of the compounds of the compounds of the present invention was studied and evaluated in BALB/C nude mice.
Eighty-one (81) female BALB/C nude mice, were equally divided into 9 groups, which were purchased from SINO-BRITSH SIPPR/BK LAB. ANIMAL LTD., CO, with Certificate No.: SOCK (Shanghai) 2008-0016.
The appropriate amount of each test compound was weighed, and successively added with 9% PEG400+0.5% tween 80+0.5% PVP+90% aqueous solution of 0.5% CMC.
After an overnight fasting, 81 female BALB/C nude mice were equally divided into 9 groups; and administered the test compounds intragastrically at an administration volume of 0.2 mL/10 g.
81 female Balb/C nude mice were administered the test compounds intragastrically after an overnight fasting. Blood (0.1 mL) was taken (3 animals at each time point) at 0.5, 1.0, 2.0, 4.0, 6.0, 8.0, 11.0, and 24.0 h after administration. The samples were stored in heparinized test tubes, and centrifuged for 10 minutes at 3,500 rpm to separate the blood plasma. The plasma samples were stored at −20° C.
The concentration of the prototype drug in the plasma and in the solution to be administered was determined by liquid chromatography tandem mass spectrometry (LC/MS MS).

The source of these data is patent publication US10398689B2, “Benzopiperidine derivative, preparation method thereof and medical use thereof” (Jiangsu Hengrui Medicine Co., Ltd., priority 2015, dated 2019).

The term Emax denotes the greatest response seen or fitted, relative to the assay's reference. For the compound `CCc1ccc(N2[C@H](c3ccc(/C=C/C(=O)O)cc3)c3ccc(-c4cnn(C)c4)cc3C[C@H]2C)cc1` [Example 2, (E)-3-(4-((1R,3R)-2-(4-Ethylphenyl)-3-methyl-6-(1-methyl-1H-pyrazol-4-yl)-1,2,3,4-tetrahydroisoquinolin-1-yl)phenyl)acrylic acid], the IC50 in the data set with MCF7 cells was 0.4 nM; on ER (estrogen receptor) it was 1.71 nM. Further, the Emax at 3 µM on ERα came out at 114%.

One may read the AUC as concentration integrated over time. Broadly, the MRT is the average time that molecules of a dose stay in the body. Broadly, the Cmax is the maximum level reached in the sampled fluid or tissue. On to `CC(C)c1ccc(N2[C@H](c3c(F)cc(/C=C/C(=O)O)cc3F)c3ccc(-c4cnn(C)c4)cc3C[C@H]2C)cc1` [Example 39, (E)-3-(3,5-Difluoro-4-((1S,3R)-2-(4-isopropylphenyl)-3-methyl-6-(1-methyl-1H-pyrazol-4-yl)-1,2,3,4-tetrahydroisoquinolin-1-yl)phenyl)acrylic acid], for which the IC50 in the data set on MCF7 cells turned out to be 0.42 nM. Besides, in data set [1], the Vd/F came out at 1.53 L/kg, the area under the curve (AUC) came to 10200 ng·h/mL, the CL/F is 4.92 mL/min/kg and the half-life was 3.6 h. In data set [1], the MRT is 7.02 h and the Cmax came out at 1760 ng/mL. At ER (estrogen receptor), the IC50 stood at 0.17 nM.

Turning to `CC1Cc2cc(-c3cnn(C)c3)ccc2C(c2ccc(/C=C/C(=O)O)cc2)N1c1ccc(C2CC2)cc1` [Example 10, (E)-3-(4-((1R,3R/1S,3S)-2-(4-Cyclopropylphenyl)-3-methyl-6-(1-methyl-1H-pyrazol-4-yl)-1,2,3,4-tetrahydroisoquinolin-1-yl)phenyl)acrylic acid], the IC50 in the data set with MCF7 cells turned out to be 0.3 nM. For the same compound, in data set [1], the Vd/F stood at 3.18 L/kg, the AUC was 6280 ng·h/mL, the CL/F turned out to be 7.96 mL/min/kg and the half-life is 4.61 h. Besides, in data set [1], the MRT was 7.08 h and the Cmax is 1070 ng/mL. For the same compound, the IC50 at ER (estrogen receptor) is 1.07 nM.

On to `CC(C)c1ccc(N2[C@@H](c3c(F)cc(/C=C/C(=O)O)cc3F)c3ccc(-c4cnn(C)c4)cc3C[C@@H]2C)cc1` (racemic) [Example 40, (E)-3-(3,5-Difluoro-4-((1S,3R/1R,3S)-2-(4-isopropylphenyl)-3-methyl-6-(1-methyl-1H-pyrazol-4-yl)-1,2,3,4-tetrahydroisoquinolin-1-yl)phenyl)acrylic acid], for which the IC50 with MCF7 cells stood at 0.23 nM; on ER (estrogen receptor), 0.6 nM. The same compound yielded an Emax at 3 µM on ERα of 115%.

Regarding `CC(C)c1ccc(N2C(C)Cc3cc(-c4cnn(C)c4)ccc3C2c2ccc(/C=C/C(=O)O)cc2)cc1` [Example 16, (E)-3-(4-((1R,3R/1S,3S)-2-(4-Isopropylphenyl)-3-methyl-6-(1-methyl-1H-pyrazol-4-yl)-1,2,3,4-tetrahydroisoquinolin-1-yl)phenyl)acrylic acid], the IC50 in the data set with MCF7 cells is 0.93 nM. In addition, in data set [1], the Vd/F came out at 1.43 L/kg, the AUC worked out at 9120 ng·h/mL, the CL/F is 5.48 mL/min/kg and the half-life was 3.01 h. For the same compound, in data set [1], the mean residence time (MRT) was 4.87 h and the Cmax came out at 1560 ng/mL. For the same compound, the IC50 on ER (estrogen receptor) came to 2.15 nM.
